Measurements reported in US9316638B2, “Reagents for reducing leukocyte interference in immunoassays” (Abbott Point of Care Inc., priority 2010, dated 2016).

Columns and labels:
[1] = glucose and oxygen concentrations in treated EBS samples (i-STAT CG8+ cartridges); assay type: biochemical, human; conditions: OX 4.0 IU per mL, Glu 700 mg/dL
Procedure: In the first group the enzyme is anticipated to remove substantially all the oxygen and the co-reactant glucose is added in substantial excess. The second group relies on glucose already in the sample to react with the enzyme. The third group is a control with added glucose and no enzyme.
Note that i-STAT® CG8+ cartridges (Abbott Point of Care, New Jersey, USA) were used to determine the glucose and oxygen concentrations.
The “Sample 2” set of data was obtained where the treatment occurs in a closed syringe to prevent any oxygen being introduced from ambient air. […] The “Sample 3” data reflects opening the syringe about 20 minutes after the initial runs to allow ambient air access. This sample was run at the 40 minute mark. […] The “Sample 1” data in FIG. 28A is a control EBS+Glu only.

[2] = From the text: While it is more common for a blood sample used in an immunoassay performed in a laboratory to be drawn from a vein, where point-of-care (or bedside, e.g. Emergency Room, Operating Room) testing is done, it is not uncommon for the sample to be drawn from an artery. […] To assess the impact of an arterial sample on the present assay, simulated arterial samples were generated and tested. […] Simulated samples were created with a tonometer using venous blood collected in an EDTA tube. The tonometer equilibrates the blood with a predetermined gas composition.
Note these samples were not enriched as described above.

leukocytes = experiment: BNP immunoassay signal slope (AmpActSlope) as indicator of leukocyte interference in enriched buffy blood samples (EBS); assay type: cell-based, human
Procedure: The experiments described below were performed on a BNP assay, specifically an i-STAT® BNP cartridge (Abbott Point of Care, Princeton, N.J., USA) or a partially modified version thereof.
As an experimental aid to understanding the affect of leukocytes on whole-blood immunoassays, it is desirable to create an enriched buffy (blood) sample (EBS). […] In the experiments described herein, the EBS constituted approximately a ten-fold increase in the buffy concentration, i.e. roughly 90% of the plasma and red cells were removed. The hematocrit value (Hct) of the sample was therefore maintained in the normal range, roughly 50-60%.
As a baseline indicator of leukocyte interference, a cut-off value of a signal rate of change above 0.05 nA per second, was used (see right side y-axis, AmpActSlope). […] In the first group the enzyme is anticipated to remove substantially all the oxygen and the co-reactant glucose is added in substantial excess. The second group relies on glucose already in the sample to react with the enzyme. The third group is a control with added glucose and no enzyme.
With respect to the first group (EBS+OX+Glu), the initial oxygen concentration of about 200 mm Hg falls to about 10 mm Hg after 50 minutes, and the glucose concentration drops from 700 to about 100 mg/dL over the same period. During this period immunoassays were run to determine the AmpActSlope value.
To further characterize these effects, a study was run on a larger sample donor pool (15 donors multiple runs), as shown in FIG. 27. FIG. 27 is a scatter plot where the desirable AmpActSlope value is less than 0.05 and greater than −0.03 nA per second. In addition, in this particular experiment a maximum desirable sensor threshold current (ParamActDoc) was also set at 8.0 nA. The desirable result was therefore to minimize samples falling into the five segments around the target zone.

Which “glucose concentration after treatment” value ([1]; OX+Glu from 700 after 50 minutes) does the source give for glucose oxidase here?
Its value is “below 20 mg/dL”.

And the “oxygen concentration (PO2) after treatment” value ([1]; initial about 200 mm Hg, OX+Glu value after 50 minutes)?
Its value is “about 50 mm Hg”.

What about the “inhibition of phagocytosis in arterial blood” value ([2]; glucose oxidase 6.0 IU and 12.0 IU per mL) of the same substance?
The value was “sufficient to inhibit phagocytosis”.

What about the “partial pressure of oxygen in the sample” value ([2]; simulated arterial blood, initial PO2 about 150 mm Hg, glucose oxidase 6.0 IU and 12.0 IU per mL) of the same substance?
The value was “below 50 mm Hg”.

What about the “change in glucose and PO2” value ([2]; tonometered whole blood, glucose oxidase 6 and 12 IU per mL, no added glucose) of the same substance?
Its value is “decreased glucose and PO2”.

And the “assayed samples with AmpActSlope below 0.05 nA per second” value (leukocytes; EBS, OX 4.0 IU per mL, Glu 700 mg/dL, FIG. 26)?
Its value is 9 out of 13.

And the “reduction in number of assays with slope above the desirable threshold” value (leukocytes; addition of glucose oxidase, in general)?
The value was “about 90%”.

And the “difference in assays beyond threshold, treated vs untreated” value (leukocytes; treated 1.0% vs untreated 13.4%, FIG. 27)?
The value was 92.1%.

And the “assays beyond threshold (AmpActSlope <0.05 and >-0.03 nA per second, ParamActDoc max 8.0 nA)” value (leukocytes; treated EBS+OX, N=287, 15 donors, FIG. 27)?
The value was 1.0%.

And the “glucose oxidase concentration in the sample found preferable” value (leukocytes; venous samples)?
The value was greater than 3 IU per mL.
